Literature values as cited in patent US20240315991A1, “USES OF HNF4 ALPHA AGONISTS” (Sanford Burnham Prebys Medical Discovery Institute, priority 2023, published 2024).

Tests used:
[1] = cited from earlier work
HNF4α [2] = target: T1, HNF4α (Homo sapiens, UniProt P41235); conditions: cited from earlier work
T1 sequence (P41235 1-474): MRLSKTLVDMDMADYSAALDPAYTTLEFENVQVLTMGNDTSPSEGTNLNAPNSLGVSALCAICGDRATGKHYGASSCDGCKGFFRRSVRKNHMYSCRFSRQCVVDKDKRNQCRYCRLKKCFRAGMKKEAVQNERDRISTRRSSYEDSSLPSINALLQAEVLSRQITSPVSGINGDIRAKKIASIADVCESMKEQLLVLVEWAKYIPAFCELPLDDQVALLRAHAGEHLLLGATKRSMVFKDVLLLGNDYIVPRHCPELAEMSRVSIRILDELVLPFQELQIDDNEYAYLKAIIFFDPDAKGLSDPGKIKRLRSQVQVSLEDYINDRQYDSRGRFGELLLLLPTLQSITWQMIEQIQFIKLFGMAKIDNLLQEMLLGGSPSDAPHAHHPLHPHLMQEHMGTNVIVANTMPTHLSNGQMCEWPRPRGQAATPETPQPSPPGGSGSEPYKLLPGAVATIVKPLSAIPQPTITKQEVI

HNF4α [3] = target: T1, HNF4α; conditions: GFP expressed under the control of the human insulin promoter; cited from earlier work

## COc1cc(/C=C/C(=O)NCCc2ccc(O)cc2)ccc1O [NFT, N-trans feruloyltyramine, reference compound]
[1]
  oral bioavailability: poor
HNF4α [2]; HNF4α siRNA ablates their effect
  specificity for HNF4α: exhibit specificity for HNF4α
HNF4α [2]
  activation of HNF4α, potency compared with Alverine and Benfluorex: much more potent activators

## CCN(CCCc1ccccc1)CCCc1ccccc1 [Alverine]
HNF4α [3]
  agonism of HNF4α: weak agonists

## CC(Cc1cccc(C(F)(F)F)c1)NCCOC(=O)c1ccccc1 (centres unmarked) [Benfluorex]
HNF4α [3]
  agonism of HNF4α: weak agonists
